The values below come from article PMC3907542 (PLoS ONE, 2014).

Data set [1] concerns CYP3A. Description: in vitro. The note with it: rat, rat liver microsomes, pH 7.4, probe nifedipine.
Description: (§1) The preparation of rat liver microsome (RLM) suspensions were performed as previously reported [38]. […] Briefly, the incubation mixtures (total volume 0.2 ml) contained microsomal protein [...
A short description of data set [2]: Pharmacokinetics of baicalin in rats (plasma Cmax). The note with it: Sprague Dawley, rat, iv, read-out: C max of baicalin. In kind it is in vivo. As for the experimental part: All pharmacokinetic data were obtained from 12 animals.
The concentration of baicalin in the blood samples was determined using a slightly modified high-performance liquid chromatography (HPLC) protocol with UV detection at 278 nm. Briefly, 100 µl methanol was added to 25 µl of the blood sample. […] The quantitation limits of baicalin in the rat plasma were 5.86 mg/L.

Another data set relates to rat plasma proteins. Nature of the data set: Plasma protein binding of nifedipine in vitro with or without baicalin (ultrafiltration). In kind it is in vitro ADME. The note with it: double reciprocal plot, baicalin 250-2000 mg/L.
For a further data set, the system named is plasma proteins. The arrangement: method as in earlier work. The note with it: plasma protein binding; ref 1 (Tang Y et al); cited from earlier work.
In data set [3] the test system is CYP3A. The note with it: Lineweaver-Burk plot, RLMs, nifedipine as substrate.
Description: as §1

Where “and” joins values, the source holds several entries; their conditions need not be identical. Equal entries are not always repeated. Where two headings read alike, the source gives them in different places.

Regarding `O=C(O)[C@H]1O[C@@H](Oc2cc3oc(-c4ccccc4)cc(=O)c3c(O)c2O)[C@H](O)[C@@H](O)[C@@H]1O` [baicalin, 5,6-Dihydroxy-flavone-7-O-glucuronide], the Ki (as a rule, the equilibrium dissociation constant of an inhibitor or competing ligand from its target) at 30 min in the data set on CYP3A [1] was 146 µM and 64.9 µg/mL. Besides, the Cmax in data set [2] (baicalin 0.225 g/kg i.v.) stood at 755 µg/mL; in data set [2] (baicalin 0.45 g/kg i.v.) it was 1280 µg/mL. Further, the “type of interaction between nifedipine and baicalin for rat plasma proteins” value with rat plasma proteins is given as “competitive”. Also, the “association constant (KA)” value in the data set with plasma proteins is 121000 L/mol. Further, the “type of inhibition of CYP3A” value in the data set with CYP3A [3] is listed as “competitive”.
